Active and inactive are the calls of the source. The calls are words filed in the database; no cut-off is given here.
Tests used:
U-251 [1] = assay: Antiproliferative activity against human U-251MG cells assessed as reduction in cell viability incubated for 24 to 72 hrs by PrestoBlue cell viability assay; format: functional, cell-based; settings: dose 0.3-300 µM, time 24-72 hrs
T98G [2] = assay: Antiproliferative activity against human T98G cells assessed as reduction in cell viability incubated for 24 hrs by PrestoBlue cell viability assay
T98G [3] = assay: Antiproliferative activity against human T98G cells assessed as reduction in cell viability incubated for 48 hrs by PrestoBlue cell viability assay
T98G [4] = assay: Antiproliferative activity against human T98G cells assessed as reduction in cell viability incubated for 72 hrs by PrestoBlue cell viability assay
U-87 MG [5] = assay: Antiproliferative activity against human U-87 MG cells assessed as reduction in cell viability incubated for 24 hrs by PrestoBlue cell viability assay
U-87 MG [6] = assay: Antiproliferative activity against human U-87 MG cells assessed as reduction in cell viability incubated for 48 hrs by PrestoBlue cell viability assay
U-87 MG [7] = assay: Antiproliferative activity against human U-87 MG cells assessed as reduction in cell viability incubated for 72 hrs by PrestoBlue cell viability assay
T98G [8] = assay: Antiproliferative activity against human T98G cells assessed as reduction in cell viability incubated for 24 to 72 hrs by PrestoBlue cell viability assay; format: functional, cell-based; settings: dose 0.3-300 µM, time 24-72 hrs
U-87 MG [9] = assay: Antiproliferative activity against human U-87 MG cells assessed as reduction in cell viability incubated for 24 to 72 hrs by PrestoBlue cell viability assay; format: functional, cell-based; settings: U-87MG ATCC, time 24-72 hrs
U-251 [10] = assay: cells; settings: Homo sapiens, U-251, 24 h
Description: Antiproliferative activity against human U-251MG cells assessed as reduction in cell viability incubated for 24 hrs by PrestoBlue cell viability assay

U-251 [11] = assay: cells; settings: Homo sapiens, U-251, 48 h
Description: Antiproliferative activity against human U-251MG cells assessed as reduction in cell viability incubated for 48 hrs by PrestoBlue cell viability assay

U-251 [12] = assay: cells; settings: Homo sapiens, U-251, 72 h
Description: Antiproliferative activity against human U-251MG cells assessed as reduction in cell viability incubated for 72 hrs by PrestoBlue cell viability assay

U-87 MG [13] = assay: Induction of cell cycle arrest in human U-87 MG cells assessed as accumulation of cell at G1 phase at IC50 concentration incubated for 72 hrs by propidium iodide/RNase staining based flow cytometry (reference value: 55.0 %); format: functional, U-87MG ATCC
[14] = Inhibition of PKA (unknown origin); parameters: species or system Homo sapiens
Homo sapiens [15] = species on record: Homo sapiens; assay: Inhibition of PKA (unknown origin) assessed as residual activity at 10 uM relative to control
[16] = biological target: Cyclin-dependent kinase 2 (Homo sapiens) (UniProt P24941); assay: Inhibition of CDK2 (unknown origin) assessed as residual activity at 10 uM relative to control
[17] = biological target: Cyclin-dependent kinase 5 (Homo sapiens) (UniProt Q00535); assay: Inhibition of CDK5 (unknown origin) assessed as residual activity at 10 uM relative to control
[18] = biological target: Cyclin-dependent kinase 9 (Homo sapiens) (UniProt P50750); assay: Inhibition of CDK9 (unknown origin) assessed as residual activity at 10 uM relative to control
[19] = biological target: Mitogen-activated protein kinase 3 (Homo sapiens) (UniProt P27361); assay: Inhibition of ERK1 (unknown origin) assessed as residual activity at 10 uM relative to control
[20] = biological target: Mitogen-activated protein kinase 1 (Homo sapiens) (UniProt P28482); assay: Inhibition of ERK2 (unknown origin) assessed as residual activity at 10 uM relative to control
[21] = biological target: RAC-alpha serine/threonine-protein kinase (Homo sapiens) (UniProt P31749); assay: Inhibition of PKBalpha (unknown origin) assessed as residual activity at 10 uM relative to control
[22] = biological target: RAC-beta serine/threonine-protein kinase (Homo sapiens) (UniProt P31751); assay: Inhibition of PKBbeta (unknown origin) assessed as residual activity at 10 uM relative to control
[23] = biological target: Protein kinase C alpha type (Homo sapiens) (UniProt P17252); assay: Inhibition of PKCalpha (unknown origin) assessed as residual activity at 10 uM relative to control
[24] = biological target: Protein kinase C gamma type (Homo sapiens) (UniProt P05129); assay: Inhibition of PKCgamma (unknown origin) assessed as residual activity at 10 uM relative to control
[25] = Cytotoxicity against human Astrocyte at 10 to 100 uM incubated for 72 hrs by PrestoBlue cell viability assay; format: toxicity, cell-based; settings: dose 10-100 µM
U-251 [26] = assay: Induction of cell cycle arrest in human U-251MG cells assessed as accumulation of cell at G1 phase at IC50 concentration incubated for 72 hrs by propidium iodide/RNase staining based flow cytometry (reference value: 74.8 %); format: functional
T98G [27] = assay: Induction of cell cycle arrest in human T98G cells assessed as accumulation of cell at G1 phase at IC50 concentration incubated for 72 hrs by propidium iodide/RNase staining based flow cytometry (reference value: 73.3 %); format: functional
U-87 MG [28] = assay: Induction of cell cycle arrest in human U-87 MG cells assessed as accumulation of cell at S phase at IC50 concentration incubated for 72 hrs by propidium iodide/RNase staining based flow cytometry relative to control; format: functional, U-87MG ATCC
U-251 [29] = assay: Induction of cell cycle arrest in human U-251MG cells assessed as accumulation of cell at S phase at IC50 concentration incubated for 72 hrs by propidium iodide/RNase staining based flow cytometry relative to control; format: functional
T98G [30] = assay: Induction of cell cycle arrest in human T98G cells assessed as accumulation of cell at S phase at IC50 concentration incubated for 72 hrs by propidium iodide/RNase staining based flow cytometry relative to control; format: functional
U-87 MG [31] = assay: Induction of cell cycle arrest in human U-87 MG cells assessed as accumulation of cell at sub-G1 phase at IC50 concentration incubated for 72 hrs by propidium iodide/RNase staining based flow cytometry relative to control; format: functional; settings: U-87MG ATCC
[32] = Metabolic stability in human liver microsomes assessed as half life at 10 uM incubated up to 60 mins by HPLC-MS analysis; format: ADME, Microsome
[33] = Metabolic stability in human liver microsomes assessed as intrinsic clearance at 10 uM incubated up to 60 mins by HPLC-MS analysis; format: ADME, Microsome; settings: 1 h
T98G [34] = assay: Antiproliferative activity against human T98G cells assessed as reduction in cell viability at IC50 concentrations incubated for 72 hrs in presence of in BBB model (cocultured with HA, HBVP and HBMEC cells) by PrestoBlue cell viability assay relative to control; format: functional
T98G [35] = assay: Antiproliferative activity against human T98G cells assessed as reduction in cell viability at IC50 concentrations incubated for 72 hrs by PrestoBlue cell viability assay relative to control; format: functional
Homo sapiens [36] = species on record: Homo sapiens; assay: Inhibition of PKA (unknown origin) at 10 uM
[37] = Cytotoxicity against human Astrocyte at 100 uM incubated for 72 hrs by PrestoBlue cell viability assay; format: toxicity, cell-based

Sequence of Cyclin-dependent kinase 9 (Homo sapiens) (P50750 whole entry): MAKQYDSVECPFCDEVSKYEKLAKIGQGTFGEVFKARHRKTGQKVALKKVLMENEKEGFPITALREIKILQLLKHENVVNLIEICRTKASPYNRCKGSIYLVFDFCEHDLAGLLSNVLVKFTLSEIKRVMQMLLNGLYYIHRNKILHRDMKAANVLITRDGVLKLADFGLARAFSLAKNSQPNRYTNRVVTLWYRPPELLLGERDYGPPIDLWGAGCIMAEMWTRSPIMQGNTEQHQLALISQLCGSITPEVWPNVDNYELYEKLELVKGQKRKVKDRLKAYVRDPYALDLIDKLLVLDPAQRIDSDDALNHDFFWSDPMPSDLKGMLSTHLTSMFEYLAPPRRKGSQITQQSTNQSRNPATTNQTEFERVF
Sequence of RAC-beta serine/threonine-protein kinase (Homo sapiens) (P31751 whole entry): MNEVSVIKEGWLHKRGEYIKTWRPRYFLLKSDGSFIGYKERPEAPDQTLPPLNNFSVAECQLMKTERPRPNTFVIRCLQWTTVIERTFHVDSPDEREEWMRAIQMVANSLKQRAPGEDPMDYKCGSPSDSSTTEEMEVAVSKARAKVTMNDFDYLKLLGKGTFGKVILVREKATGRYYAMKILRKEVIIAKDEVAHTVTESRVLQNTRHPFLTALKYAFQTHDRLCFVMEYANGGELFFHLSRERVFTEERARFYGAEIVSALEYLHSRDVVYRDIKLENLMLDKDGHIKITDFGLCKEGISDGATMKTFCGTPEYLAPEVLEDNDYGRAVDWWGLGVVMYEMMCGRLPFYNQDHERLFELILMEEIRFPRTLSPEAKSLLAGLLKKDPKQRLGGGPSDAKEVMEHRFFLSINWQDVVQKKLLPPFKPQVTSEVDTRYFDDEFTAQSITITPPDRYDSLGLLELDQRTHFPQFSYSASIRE
Sequence of Mitogen-activated protein kinase 3 (Homo sapiens) (P27361 whole entry): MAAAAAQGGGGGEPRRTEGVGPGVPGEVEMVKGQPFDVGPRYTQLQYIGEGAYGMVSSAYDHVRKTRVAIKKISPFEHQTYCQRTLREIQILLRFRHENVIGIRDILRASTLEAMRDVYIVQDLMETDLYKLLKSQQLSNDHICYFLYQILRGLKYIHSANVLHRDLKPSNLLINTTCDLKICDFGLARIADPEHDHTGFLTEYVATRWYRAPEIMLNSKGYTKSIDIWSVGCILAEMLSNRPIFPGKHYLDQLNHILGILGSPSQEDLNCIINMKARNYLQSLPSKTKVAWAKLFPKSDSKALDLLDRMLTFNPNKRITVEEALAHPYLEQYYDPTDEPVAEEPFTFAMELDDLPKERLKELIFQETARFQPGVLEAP
Sequence of Cyclin-dependent kinase 5 (Homo sapiens) (Q00535 whole entry, looked up): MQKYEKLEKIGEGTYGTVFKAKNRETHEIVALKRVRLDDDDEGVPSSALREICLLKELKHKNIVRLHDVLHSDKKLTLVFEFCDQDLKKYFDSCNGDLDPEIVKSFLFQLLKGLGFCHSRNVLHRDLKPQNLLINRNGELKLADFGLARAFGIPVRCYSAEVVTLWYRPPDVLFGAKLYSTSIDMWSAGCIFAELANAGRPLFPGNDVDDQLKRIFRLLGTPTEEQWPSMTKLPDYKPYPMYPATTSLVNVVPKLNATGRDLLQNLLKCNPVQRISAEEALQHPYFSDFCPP
Sequence of Mitogen-activated protein kinase 1 (Homo sapiens) (P28482 whole entry): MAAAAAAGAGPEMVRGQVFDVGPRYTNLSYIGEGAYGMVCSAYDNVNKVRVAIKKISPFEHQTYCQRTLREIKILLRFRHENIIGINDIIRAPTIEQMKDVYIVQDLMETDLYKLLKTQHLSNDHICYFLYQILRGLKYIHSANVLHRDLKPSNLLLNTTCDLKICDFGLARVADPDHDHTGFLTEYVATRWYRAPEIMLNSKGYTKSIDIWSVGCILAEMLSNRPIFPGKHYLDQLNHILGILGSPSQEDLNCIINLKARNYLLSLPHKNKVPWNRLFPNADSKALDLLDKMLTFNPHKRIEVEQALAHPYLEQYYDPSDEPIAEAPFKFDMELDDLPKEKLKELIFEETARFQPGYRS
Sequence of RAC-alpha serine/threonine-protein kinase (Homo sapiens) (P31749 whole entry): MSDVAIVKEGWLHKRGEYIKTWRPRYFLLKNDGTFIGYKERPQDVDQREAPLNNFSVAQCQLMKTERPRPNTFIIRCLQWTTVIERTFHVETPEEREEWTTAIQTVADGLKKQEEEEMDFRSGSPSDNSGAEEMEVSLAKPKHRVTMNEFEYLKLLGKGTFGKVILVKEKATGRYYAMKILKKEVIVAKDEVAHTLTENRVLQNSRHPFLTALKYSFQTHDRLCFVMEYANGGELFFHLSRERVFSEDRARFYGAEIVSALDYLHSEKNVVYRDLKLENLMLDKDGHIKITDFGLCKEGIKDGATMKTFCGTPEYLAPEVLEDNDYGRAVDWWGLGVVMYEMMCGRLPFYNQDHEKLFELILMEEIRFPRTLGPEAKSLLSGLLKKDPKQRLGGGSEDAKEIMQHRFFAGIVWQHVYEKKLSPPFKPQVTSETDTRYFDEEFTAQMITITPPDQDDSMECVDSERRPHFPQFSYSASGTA

With `Cn1sc(=O)n(Cc2ccccc2)c1=O` the Activity (U-251 [1]) was “Dose-dependent-effect”, the IC50 (T98G [2]) was 65.9 µM and the IC50 (T98G [3]) was 54.4 µM. For the same compound, the IC50 (T98G [4]) was 41.4 µM, the IC50 (U-87 MG [5]) was 36.8 µM and the IC50 (U-87 MG [6]) was 28.2 µM. For the same compound, the IC50 (U-87 MG [7]) was 23.6 µM, the Activity (T98G [8]) was “Dose-dependent-effect” and the Activity (U-87 MG [9]) was “Dose-dependent-effect”. For the same compound, the IC50 (U-251 [10]) was 51 µM, the IC50 (U-251 [11]) was 24.9 µM and the IC50 (U-251 [12]) was 15.7 µM.

For `CC(C)c1ccc(-c2c3cn[nH]c3nc3c2oc2cc(O)ccc23)cc1`, the Activity (U-87 MG [13]) was 45.5%, the Activity (U-251 [1]) was “Dose-dependent-effect” and the IC50 [14] was 0.188 µM. For the same compound, the Activity (Homo sapiens [15]) was > 50%, the Activity [16] was > 50% and the Activity [17] was > 50%. For the same compound, the Activity [18] was > 50%, the Activity [19] was > 50% and the Activity [20] was > 50%. For the same compound, the Activity [21] was > 50%, the Activity [22] was > 50% and the Activity [23] was > 50%. The Activity [24] was > 50%, the IC50 (T98G [2]) was 12 µM and the IC50 (T98G [3]) was 8.1 µM. For the same compound, the IC50 (T98G [4]) was 6.2 µM, the IC50 (U-87 MG [5]) was 15 µM and the IC50 (U-87 MG [6]) was 4.7 µM. The IC50 (U-87 MG [7]) was 3.3 µM, the Activity (T98G [8]) was “Dose-dependent-effect” and the Activity (U-87 MG [9]) was “Dose-dependent-effect”. The Activity [25] was “Non-toxic”, the Activity (U-251 [26]) was 61.6% and the Activity (T98G [27]) was 65.8%. The Activity (U-87 MG [28]) was 27.8%, the Activity (U-251 [29]) was 15.9% and the Activity (T98G [30]) was 22.3%. The Activity (U-87 MG [31]) was “Active”, the half-life at 10 µM [32] was 1.68 h and the CLH [33] was 5.6 µL/min/mg. The Activity (T98G [34]) was 78%, the Activity (T98G [35]) was 61% and the inhibition (Homo sapiens [36]) was “Active”. For the same compound, the Activity [37] was “Non-toxic”, the IC50 (U-251 [10]) was 15.1 µM and the IC50 (U-251 [11]) was 8.3 µM. For the same compound, the IC50 (U-251 [12]) was 6.1 µM.

— ChEMBL document CHEMBL6134858, “Structure-Based Discovery Targeting GSK-3α Reveals Potent Nanomolar Selective 4-Phenyl-1H-benzofuro[3,2-b]pyrazolo[4,3-e]pyridine Inhibitor with Promising Glioblastoma and CNS-Active Potential in Cellular Models” (J Med Chem, 2025)
